In this assay the target is VFT^pp (periplasmic VFT domain of RmcA^pp) (Pseudomonas putida, UniProt Q88QU8). The assay can be described thus: biochemical.
Sequence of VFT^pp (periplasmic VFT domain of RmcA^pp) (Q88QU8 21-265): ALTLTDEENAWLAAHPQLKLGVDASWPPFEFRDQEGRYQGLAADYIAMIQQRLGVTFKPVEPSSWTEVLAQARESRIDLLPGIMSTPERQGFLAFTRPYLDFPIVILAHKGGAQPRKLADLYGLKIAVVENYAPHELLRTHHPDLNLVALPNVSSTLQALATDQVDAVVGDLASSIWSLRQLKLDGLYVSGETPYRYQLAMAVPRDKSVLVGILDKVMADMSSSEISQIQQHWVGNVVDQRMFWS

On to `N=C(N)NCCC[C@H](N)C(=O)O` [L-arginine], for which the affinity, expressed as Kd, was 7.1 ± 2.2 µM.
